According to US10059760B2 (priority 2014, dated 2018):
Like-named read-outs stand apart in the source and are kept apart here.

Conditions: mouse, in vivo

Structure (SMILES) | tolerance (sc, 25 mg/kg) | tolerance (50 mg/kg)
O=C(O)c1cn(C2CC2)c2cc(N3CCNCC3)c(F)cc2c1=O [ciprofloxacin] | favorably tested | 
C[C@H]1c2cccc(O)c2C(=O)C2=C(O)[C@]3(O)C(=O)C(C(N)=O)=C(O)[C@@H](N(C)C)[C@@H]3[C@@H](O)[C@@H]21 [doxycycline] |  | poorly tolerated
